Where “and” joins values, the source holds several entries; their conditions need not be identical. Equal values may be shown once.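 1) Cells in 96-well plates. 2) Compound, 48 h, 5 concentrations. 3) Linear interpolation between surrounding doses. 4) Unreached endpoint = highest concentration. GI50 = concentration required for 50% inhibition of growth. TGI: total growth inhibition.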 Where only a bound is given, the exact number is not on record here.

This assay relates to MDA-MB-468 breast. Kind of assay: DTP human tumour cell line panel, 48 h.
As to `COc1cc(/C=N/Nc2ncnc3c2cnn3C(C)C)ccc1O`, the GI50 (usually the concentration giving 50% growth inhibition) was 9.32 µM and the TGI (as a rule, the concentration giving total growth inhibition) was 24.6 µM.
Turning to `Cc1onc(-c2c(F)cccc2Cl)c1-c1ncc(-c2ccc(Cl)cc2)o1`, the GI50 was 3.49 µM and the TGI is over 100 µM.
As to `O=[N+]([O-])c1cc([N+](=O)[O-])c(Cl)c(Cl)c1Cl`, the GI50 is 0.25 µM and the TGI amounted to 0.723 µM.
Regarding `Cc1cc2nc(C(Cl)Cl)nc(-c3cccs3)n2n1`, the GI50 is 0.314 µM and the TGI was determined as 1.54 µM.
Regarding `Cn1cc(C2=C(c3c4n(c5ccccc35)CCCC4)C(=O)NC2=O)c2ccccc21`, the GI50 was 5.31 µM and the TGI is over 25 µM.
With `Cc1cc2cccnc2c2ncccc12`, the GI50 was 2.03 µM and the concentration for total growth inhibition (TGI) worked out at 5.48 µM.
On the same counts, the results for `CN(Cc1cnc(N)nc1N)c1ccc(C(=O)O)cc1` are over 100 µM and over 100 µM.
For `CN1CCN(c2ccc(-c3ccc4ncc(C#N)c(Nc5ccc(F)c(Cl)c5)c4c3)cc2)CC1`, the GI50 is 0.431 µM and the total growth inhibition concentration (TGI) stood at 2.1 µM.
In the case of `COc1cc2ccccc2c2cc([N+](=O)[O-])oc12`, the GI50 is 1.03 µM and the TGI is 2.36 µM.
For the compound `COc1cccc(C(=O)Nc2ccc(CN3CCc4nc5cc(OC)c(OC)cc5cc43)cc2)c1`, the GI50 is 4.01 µM and the total growth inhibition concentration (TGI) worked out at 31.9 µM.
Consider `COc1cc(/C=C/C(=O)c2cc(OC)c(OC)c(OC)c2)ccc1Oc1nc(NCCO)nc(N2CCOCC2)n1`, for which the GI50 is 1.71 µM and the TGI turned out to be 4.3 µM.
The like results for `Cc1ccc(NC(=O)c2ccc(CN3CCN(C)CC3)c(C(F)(F)F)c2)cc1Oc1ccc(-c2[nH]nc3ncnc(N)c23)cc1` were, in that order, 12.2 µM and 43.9 µM.
On the same counts, the results for `O=C(Nc1ccc(F)cc1)c1cc(-c2ccc(F)cc2F)ccc1O` are 2.21 µM and 7.48 µM.
The like results for `Cc1cc(N2CCN(C)CC2)nc(NCc2cc(Nc3ccnc4cc(Cl)ccc34)ccc2F)n1` were, in that order, 1.67 µM and 3.59 µM.
Take `COc1cc(N2CCN(C(C)C)CC2)ccc1Nc1nc(Nc2cccc3ncccc23)c2cc[nH]c2n1`: the GI50 was 3.59 µM and the TGI was found to be 8.84 µM.
On the same counts, the results for `Cc1cc(Cc2cc(C)c(O)c(C)c2)cc(C)c1O` are 2.55 µM and 9.75 µM.
`CCN(CC)C(=O)CC1=C(C)/C(=C/c2[nH]c(-c3ccc[nH]3)cc2OC)N=C1C`: the GI50 is 0.572 µM and the TGI is 17.9 µM.
The like results for `N#CC(C#N)=Cc1c(-c2ccccc2)[nH]c2ccccc12` were, in that order, 0.955 µM and 5.21 µM.
The like results for `COc1ccc2c(c1)[C@]1(C[C@H]1c1ccc3c(/C=C/c4ccc(CN5C[C@@H](C)O[C@@H](C)C5)cc4)n[nH]c3c1)C(=O)N2` were, in that order, 2.99 µM and over 92.4 µM.
Turning to `Oc1ccc(CSc2nnc(-c3ccncc3)n2-c2ccccc2)c2cccnc12`, the GI50 is 1.35 µM and the TGI stood at 16.1 µM.
On the same counts, the results for `COc1ccc(Cl)cc1Nc1nc(C(F)(F)F)ccc1C(=O)N/N=C/c1ccc([N+](=O)[O-])cc1` are 1.13 µM and 3.68 µM.
With `O=C(/C=C/C12c3ccccc3C(c3ccccc31)C1C(=O)N(c3ccccc3)C(=O)C12)c1ccc(Cl)cc1` (stereo unspecified), the GI50 was 1.88 µM and the TGI turned out to be 5.87 µM.
Take `Cc1c(C)c2c(c(C)c1NC(=O)/C=C\C(=O)O)CCC(C)(CCCC(C)CCCC(C)CCCC(C)C)O2` (stereo unspecified): the GI50 was 1.99 µM and the TGI stood at 3.98 µM.
On the same counts, the results for `NC(=O)c1cc(-c2ccncc2)cc(-c2ccccc2)c1N` are 6.44 µM and over 25 µM.
On the same counts, the results for `NC(C/[N+]([O-])=N/O)C(=O)O` (stereo unspecified) are 7.31 µM and over 500 µM.
The like results for `COc1ccc(C[n+]2c3ccccc3n3c4ccc(N)cc4ccc32)c(OC)c1OC` were, in that order, 0.275 µM and 1.42 µM.
As for `O=C(/C=C/c1ccccc1)c1c[nH]c2ccccc2c1=O`, the GI50 was 1.8 µM and the TGI stood at 4.41 µM.
With `COc1cc(NS(C)(=O)=O)ccc1Nc1c2ccccc2nc2c(C)cccc12`, the concentration for 50% growth inhibition (GI50) is 0.236 µM and 0.298 µM; the total growth inhibition concentration (TGI) is 0.779 µM and 1.67 µM.
As to `C=CCn1c(=O)c2cnc(Nc3ccc(N4CCN(C)CC4)cc3)nc2n1-c1ccc2c(n1)[C@@](O)(CC)CC2`, the GI50 is 0.189 µM and the TGI came out at 0.698 µM.
Take `COc1cc2c(c(OC)c1OC)C(=O)CC(c1cccc(NC(=O)c3ccc(Br)cc3)c1)O2` (stereo unspecified): the GI50 is 1.85 µM and the TGI worked out at 8.01 µM.
For the compound `CC1=CC[C@@H]2C(C)(C)C(=O)CC[C@@]2(C)[C@@H]1COc1ccc2ccc(=O)oc2c1`, the GI50 is 4.83 µM and the concentration for total growth inhibition (TGI) stood at 35.9 µM.
The like results for `CN(CCC#N)c1ccc(/C=C(\C#N)c2cccc(C(F)(F)F)c2)cc1` were, in that order, 0.797 µM and over 100 µM.
On the same counts, the results for `COc1cc(-c2nn(-c3ccc(NC(=O)Nc4ccc(Cl)c(Cl)c4)cc3)cc2-c2ccncc2)ccc1Cl` are 2.15 µM and 5.72 µM.
The like results for `CN1CCN(CCCOc2cccc3nc(Nc4ccc(Cl)c(F)c4)ccc23)CC1` were, in that order, 1.72 µM and 3.32 µM.
Regarding `COc1cc(-c2n/c(=C\c3c(O)[nH]c4ccc(Cl)cc34)cc3c2=Nc2ccccc2-3)cc(OC)c1OC`, the GI50 is 1.73 µM and the TGI was found to be 4.26 µM.
Turning to `O=C(/C=C1\C(=O)N(Cc2ccc([N+](=O)[O-])cc2)c2ccccc21)c1ccc(OCCN2CCCCC2)cc1`, the GI50 is 1.11 µM and the TGI was 2.49 µM.
The like results for `Cc1oc2nc[nH]c(=O)c2c1C(=O)/C=C/c1ccc(Cl)cc1` were, in that order, 1.38 µM and 3.87 µM.
Regarding `CCCCN(CCCC)c1ccc(C(=N)c2ccc(N(C)C)cc2)cc1`, the GI50 is 0.249 µM and the TGI came to 0.966 µM.
The like results for `COc1ccc(-c2nn(-c3ccc(NC(=O)c4ccc(Cl)c(C(F)(F)F)c4)cc3)cc2-c2ccncc2)cc1Cl` were, in that order, 1.6 µM and over 100 µM.
On the same counts, the results for `C=C1C(=O)O[C@H]2[C@H]1CC/C(Cn1cc(CNCCc3c[nH]c4ccc(Cl)cc34)nn1)=C\CC[C@@]1(C)O[C@@H]21` are 2.19 µM and 9.19 µM.
Regarding `Oc1c(C(Nc2cccc3ccccc23)c2ccccc2)ccc2cccnc12` (stereo unspecified), the GI50 is 1.79 µM and the total growth inhibition concentration (TGI) was 4.31 µM.
`O=C(CCCn1c(=O)c2sc3ccccc3c2n2nnc(-c3ccccc3)c12)NCCc1cnc[nH]1`: the GI50 was 1.69 µM and the TGI came to 3.68 µM.
On the same counts, the results for `IP(CCCCCCCCCCSc1n(Cc2ccc3ccccc3c2)c(-c2ccccc2)c(-c2ccccc2)[n+]1Cc1ccc2ccccc2c1)(c1ccccc1)(c1ccccc1)c1ccccc1` are 0.267 µM and 0.918 µM.
